# Data taken from patent publication US11136313B2, “Compounds, compositions, and methods for modulating CFTR” (Proteostasis Therapeutics, Inc., priority 2015, dated 2021).
# Molecular target: T1, ΔF508-CFTR (Homo sapiens, UniProt P13569, DEL508-508)
# T1 construct: Primary lung epithelial cells homozygous for the Cystic Fibrosis-causing ΔF508 mutation were differentiated for a minimum of 4 weeks; endogenous in cells; host or cells: primary lung epithelial cells (hBE) homozygous for ΔF508, differentiated at an air-liquid interface
# T1 sequence (P13569 with tags, fused parts or gaps DEL508-508): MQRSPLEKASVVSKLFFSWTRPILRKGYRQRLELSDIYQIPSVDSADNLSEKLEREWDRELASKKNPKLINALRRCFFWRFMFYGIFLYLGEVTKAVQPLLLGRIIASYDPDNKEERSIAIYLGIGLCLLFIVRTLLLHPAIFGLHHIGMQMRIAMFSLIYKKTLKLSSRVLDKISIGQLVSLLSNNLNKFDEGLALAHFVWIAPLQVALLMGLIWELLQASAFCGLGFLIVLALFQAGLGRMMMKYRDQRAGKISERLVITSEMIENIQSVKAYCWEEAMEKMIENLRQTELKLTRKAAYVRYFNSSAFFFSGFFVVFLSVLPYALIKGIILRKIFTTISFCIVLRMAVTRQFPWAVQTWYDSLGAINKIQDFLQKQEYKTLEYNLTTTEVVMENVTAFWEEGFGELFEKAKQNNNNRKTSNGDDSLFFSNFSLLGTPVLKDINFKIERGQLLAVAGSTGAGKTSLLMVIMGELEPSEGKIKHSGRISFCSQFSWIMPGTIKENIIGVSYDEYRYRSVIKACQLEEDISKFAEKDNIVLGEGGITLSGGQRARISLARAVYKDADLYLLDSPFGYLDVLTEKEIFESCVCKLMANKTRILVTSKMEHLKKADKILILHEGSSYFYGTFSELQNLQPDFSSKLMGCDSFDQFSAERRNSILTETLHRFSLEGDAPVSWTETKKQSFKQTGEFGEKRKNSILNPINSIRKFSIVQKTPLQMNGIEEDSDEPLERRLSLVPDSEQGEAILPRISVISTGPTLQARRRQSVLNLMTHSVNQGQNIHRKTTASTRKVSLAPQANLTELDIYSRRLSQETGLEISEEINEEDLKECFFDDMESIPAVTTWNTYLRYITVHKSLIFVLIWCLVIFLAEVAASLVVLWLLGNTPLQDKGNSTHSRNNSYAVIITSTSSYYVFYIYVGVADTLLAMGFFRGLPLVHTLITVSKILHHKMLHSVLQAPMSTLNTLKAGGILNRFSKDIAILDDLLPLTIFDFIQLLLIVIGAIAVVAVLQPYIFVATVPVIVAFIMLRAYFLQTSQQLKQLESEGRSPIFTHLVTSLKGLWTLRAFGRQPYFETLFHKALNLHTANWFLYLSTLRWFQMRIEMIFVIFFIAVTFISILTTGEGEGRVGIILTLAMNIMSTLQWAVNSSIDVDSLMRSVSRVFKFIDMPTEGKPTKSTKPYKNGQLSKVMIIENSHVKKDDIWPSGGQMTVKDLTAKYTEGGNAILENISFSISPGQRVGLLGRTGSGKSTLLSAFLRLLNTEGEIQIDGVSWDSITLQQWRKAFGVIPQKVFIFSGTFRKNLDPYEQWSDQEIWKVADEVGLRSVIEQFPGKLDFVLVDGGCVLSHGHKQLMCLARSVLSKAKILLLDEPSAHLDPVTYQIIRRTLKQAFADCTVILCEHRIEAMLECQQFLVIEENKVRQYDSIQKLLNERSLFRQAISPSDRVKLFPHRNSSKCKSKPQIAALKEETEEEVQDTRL
# Assay: hBE equivalent current (Ieq) assay: AUC of equivalent chloride current after forskolin/VX-770 in primary lung epithelial cells homozygous for ΔF508
# Format: cell-based
# Conditions: relative to CFTR amplifier (Compound A)+VX-809 (3 uM), compound at 10 uM and Compound A at 3 uM, 24 h treatment
# Outline: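 ΔF508/ΔF508 primary human bronchial epithelia, differentiated ≥4 weeks at air-liquid interface, treated basolaterally with compound for 24 h at 37 °C. Transepithelial voltage and conductance by 24-channel current clamp at 36 °C: benzamil, then forskolin plus VX-770 for 27 min, then bumetanide; AUC of equivalent chloride current over vehicle.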
row,SMILES,Activity
1,Cc1c(-c2cc(C(=O)[O-])c3c(O[C@@H](C)C4CCCCC4)ccc(C)c3n2)oc2ccccc12.[Na+] [Compound 244],++ (activity>50% of CFTR amplifier+VX-809 (3 uM) with compound at 10 uM and Compound A at 3 uM)
2,"Cc1c(-c2cc(C(=O)[O-])c3c(OCc4c(F)cccc4F)ccc(C)c3n2)sc2ccccc12.[Na+] [Compound 294, Sodium 5-[(2,6-Difluorophenyl)methoxy]-8-methyl-2-(3-methyl-1-benzothiophen-2-yl)quinoline-4-carboxylate]",++ (activity>50% of CFTR amplifier+VX-809 (3 uM) with compound at 10 uM and Compound A at 3 uM)
3,Cc1c(-c2cc(C(=O)[O-])c3c(OC[C@H]4C[C@](C)(O)C4)ccc(C)c3n2)sc2ccccc12.[Na+] [Compound 321],++ (activity>50% of CFTR amplifier+VX-809 (3 uM) with compound at 10 uM and Compound A at 3 uM)
4,"Cc1c(-c2cc(C(=O)O)c3c(OCc4ccccc4)ccc(C(C)C)c3n2)oc2ccccc12 [Compound 109, 5-(Benzyloxy)-2-(3-methyl-1-benzofuran-2-yl)-8-(propan-2-yl)quinoline-4-carboxylic acid]",++ (activity>50% of CFTR amplifier+VX-809 (3 uM) with compound at 10 uM and Compound A at 3 uM)
5,"Cc1c(-c2cc(C(=O)[O-])c3c(O[C@@H](C)C4CCN(S(C)(=O)=O)CC4)ccc(C)c3n2)oc2ccccc12.[Na+] [Compound 248, Sodium 5-[(1S)-1-(1-Methanesulfonylpiperidin-4-yl)ethoxy]-8-methyl-2-(3-methyl-1-benzofuran-2-yl)quinoline-4-carboxylate]",++ (activity>50% of CFTR amplifier+VX-809 (3 uM) with compound at 10 uM and Compound A at 3 uM)
6,"Cc1c(-c2cc(C(=O)O)c3cc(C(F)(F)F)cc(C)c3n2)oc2ccccc12 [Compound 19, 8-Methyl-2-(3-methyl-1-benzofuran-2-yl)-6-(trifluoromethyl)quinoline-4-carboxylic acid]",++ (activity>50% of CFTR amplifier+VX-809 (3 uM) with compound at 10 uM and Compound A at 3 uM)
7,"Cc1c(-c2cc(C(=O)O)c3c(OCC(F)F)ccc(C)c3n2)oc2ccccc12 [Compound 122, 5-(2,2-Difluoroethoxy)-8-methyl-2-(3-methyl-1-benzofuran-2-yl)quinoline-4-carboxylic acid]",++ (activity>50% of CFTR amplifier+VX-809 (3 uM) with compound at 10 uM and Compound A at 3 uM)
8,"Cc1oc2ccccc2c1-c1cc(C(=O)O)c2c(OC(F)F)ccc(C)c2n1 [Compound 123, 5-(Difluoromethoxy)-8-methyl-2-(2-methyl-1-benzofuran-3-yl)quinoline-4-carboxylic acid]",+ (activity<50% of an CFTR amplifier (Compound A)+VX-809 (3 uM) with compound at 10 uM and Compound A at 3 uM)
9,CCc1ccc(OCc2ccc(-c3cccnc3)cc2)c2c(C(=O)O)cc(-c3csc4ccccc34)nc12 [Compound 195],++ (activity>50% of CFTR amplifier+VX-809 (3 uM) with compound at 10 uM and Compound A at 3 uM)
10,"Cc1cc(C)c2nc(-c3oc4ccccc4c3C)c(C(=O)O)cc2c1 [Compound 105, 6,8-Dimethyl-2-(3-methyl-1-benzofuran-2-yl)quinoline-3-carboxylic Acid]",+ (activity<50% of an CFTR amplifier (Compound A)+VX-809 (3 uM) with compound at 10 uM and Compound A at 3 uM)
11,Cc1c(-c2cc(-c3cc(O)[nH]n3)c3c(OC(C)c4ccccc4)ccc(C)c3n2)oc2ccccc12 (stereo not shown) [Compound 362],+ (activity<50% of an CFTR amplifier (Compound A)+VX-809 (3 uM) with compound at 10 uM and Compound A at 3 uM)
12,"Cc1c(-c2cc(C(=O)O)c3c(OC(F)(F)F)ccc(C)c3n2)oc2ccccc12 [Compound 121, 8-Methyl-2-(3-methyl-1-benzofuran-2-yl)-5-(trifluoromethoxy)quinoline-4-carboxylic acid]",+ (activity<50% of an CFTR amplifier (Compound A)+VX-809 (3 uM) with compound at 10 uM and Compound A at 3 uM)
13,Cc1c(-c2cc(C(=O)[O-])c3c(O[C@@H](C)c4ccccc4)ccc(C)c3n2)oc2ccccc12.[Na+] [Compound 213],++ (activity>50% of CFTR amplifier+VX-809 (3 uM) with compound at 10 uM and Compound A at 3 uM)
